Values joined by “and” are separate entries in the source; they are usually repeats but may differ in a detail not shown here. Identical values can stand only once. Where a SMILES comes first, the peptide text is derived from it.
Settings: acidic group

Point of comparison: `CCOc1ccc(C(=O)O)cc1`, pKa 4.64. Against it:
- Cc1nsc(S)n1 — higher, 5.18
- C[NH+](C)Cc1cc(Br)ccc1O — higher, 7.58
- NC1=[NH+][C@H](C(=O)O)[C@@H]([C@H](O)C[NH3+])N1 — lower, 2.4
- FC(F)(F)c1ncnc2nc[nH]c12 — higher, 7.35
- [O-]c1ncnc2nc[nH]c12 — higher, 12.1
- Ic1ccc(-c2nnn[nH]2)cc1 — lower, 3.88
- C=C1CC1C[C@H]([NH3+])C(=O)O (some centres not stated) — lower, 2.4
- Cn1cnc2[nH]c(=O)[nH]c(=O)c21 — higher, 8.45
- O=c1[nH]c(=O)n(-c2ccccc2)[nH]1 — higher, 4.9
- [NH3+]C(c1cccc(O)c1O)P(=O)([O-])O (configuration not stated) — higher, 5.06
- Cc1nn(C)c(O)c1Cc1ccccc1 — higher, 10.9
- Oc1c(Cl)cc(Cl)c(Cl)c1C[NH+]1CCOCC1 — higher, 4.84
- O=C(O)c1ccc(I)cc1 — lower, 3.99
- COc1ccc(C(=S)Nc2ccc(Cl)cc2)cc1 — higher, 10.9
- FC(F)(F)c1cccc(NC=S)c1 — higher, 10.8
- [O-]c1cccc2c1-c1cccc(O)c1-2 — higher, 9.97
- CCC1C(=O)C(CC)C1=O (configuration not stated) — lower, 3.5
- C/C=C\C=C/C(=O)O — within 0.2 log units, 4.51
- Cc1c(O)cncc1C1CCCCC1 — higher, 10
- CC(C)(C(=O)O)c1nnnn1C1CCCCC1 — lower, 3.7
- Cc1ccc([Se](=O)O)cc1 — higher, 4.88
- C=CC(Cl)C(=O)O (configuration not stated) — lower, 2.54
- Cc1cc(O)ccc1[N+](C)(C)C — higher, 8.34
- Cc1cc(N)c2ccccc2c1O — higher, 10.1
- CC(=O)N[C@H]1CC(=O)NC1=O — higher, 8.85
- Oc1ccc(Cl)cc1C[NH+]1CCCCC1 — higher, 8.14
- Cc1cc(C)c2cccc(O)c2n1 — higher, 10.6
- [NH3+]CCCCCCC(=O)O — lower, 4.44
- Oc1c(C(Nc2nc3ccccc3s2)c2ccccn2)ccc2cccnc12 (configuration not stated) — higher, 10.9
- Oc1cc(O)c2ccccc2[nH+]1 — lower, 0.76
- Cc1cc(Nc2ccc(O)cc2)c(C(C)C)cc1O — higher, 9.85
- O=[PH]([O-])C(NCc1cccnc1)c1ccccc1O (configuration not stated) — higher, 12

Same assay, conditions: basic group

Point of comparison: `CN[C@H]1C[C@@H]1NC`, pKa 8.73. Against it:
- c1ccc(CSc2ccccn2)cc1 — lower, 3.23
- [O-]c1ncnc2nc[nH]c12 — within 0.2 log units, 8.81
- CCC(=O)C(CC(C)N1CCCCC1)(c1ccccc1)c1ccccc1 (configuration not stated) — within 0.2 log units, 8.58
- OC(CN1CCCC1)CN1CCCC1 — higher, 9.73
- N/C(CCNc1ccccc1)=N\O — lower, 5.35
- O=[N+]([O-])c1cc(CN2CCOCC2)c([O-])c2ccccc12 — lower, 7.98
- Cn1cnc2[nH]c(=O)[nH]c(=O)c21 — lower, 0.87
- O=c1[nH]c(=O)n(-c2ccccc2)[nH]1 — lower, -4.1
- Cn1cnc2nc(N)nc([O-])c21 — lower, 8.43
- NC(=O)C[C@H](NC(=O)[C@@H](N)CS)C(=O)O (H-Cys-Asn-OH) — lower, 7.05
- CN1CC[C@@]23c4c5ccc(O)c4O[C@]2(C)C(=O)CC[C@@H]3[C@@H]1C5 — lower, 8.08
- c1cncc(-c2[nH]c3ccccc3[nH+]2)c1 — lower, 1.56
- CC(=O)N(C)c1ccccn1 — lower, 2.01
- CN1CCC1 — higher, 10.4
- c1ccc(-c2ncc[nH]2)nc1 — lower, 5.46
- CN1CCNCC1 — higher, 9.6
- Oc1ccccc1CNC1CCCCC1 — within 0.2 log units, 8.67
- CNCc1ccc(C)cc1 — higher, 9.93
- Cc1c(O)cncc1C1CCCCC1 — lower, 5.6
- CNCC[S-] — higher, 10.8
- CC[C@H](C(=O)[O-])[C@H](CO)Cc1cncn1C — lower, 7.47
- Nc1ccc(S(=O)(=O)Nc2cccc[nH+]2)cc1 — lower, 1
- [O-]c1c(Cl)cc(Cl)cc1CN1CCOCC1 — within 0.2 log units, 8.85
- CN[C@@H]1[C@@H](C)[C@@H]1[NH2+]C — lower, 3.68
- CC1(C)SCNC1C(=O)[O-] (configuration not stated) — lower, 6.34
- COc1ccc2c(c1)CC(C)N2 (configuration not stated) — lower, 6.2
- CC1CCCN1C (configuration not stated) — higher, 10.2
- CNCCNCCN — higher, 10.2
- Cc1cc(C)c2cccc(O)c2n1 — lower, 6.2
- NCCCCc1ccccn1 — higher, 10.3
- OCCCCCc1ccncc1 — lower, 6.04
- NNC(=O)c1cccc([NH3+])c1 — lower, 2.57
- CC(C)CN — higher, 10.4
- C[C@@H]1CNC[C@H](C)[NH2+]1 — lower, 5.4
- O=[PH]([O-])C(NCc1cccnc1)c1ccccc1O (configuration not stated) — lower, 8.05
- N#Cc1ccc(N)c2ccccc12 — lower, 1.2
- O=C(CN1CCCCC1)NCc1ccccc1 — lower, 7.71

In the case of `CCS[C@@H]1C(O)C2CC(=O)CC1N2C` (some centres not stated), the pKa is reported as 4.9 and 5.4.
